# Results: patent US9340590B2 (priority 2011, dated 2016)
# pIC50: −log10 of the molar value. Where two headings read alike, the source gives them in different places. Positions of bridges follow the written chain, without caps; N, C: chain ends. Residues, ends and D or L forms follow the SMILES beside them.
# Assays:
# hNav1.3 = hNav1.3 (Homo sapiens, UniProt Q9NY46); test: cell-based; conditions: IonWorks Quattro, read-out: IWQ Use Nav1.3
# hNav1.5 = hNav1.5 (Homo sapiens, UniProt Q14524); test: cell-based; conditions: for pIC50: IonWorks Quattro, read-out: IWQ Use Nav1.5
# Sequence of hNav1.5 (Q14524 whole entry, looked up): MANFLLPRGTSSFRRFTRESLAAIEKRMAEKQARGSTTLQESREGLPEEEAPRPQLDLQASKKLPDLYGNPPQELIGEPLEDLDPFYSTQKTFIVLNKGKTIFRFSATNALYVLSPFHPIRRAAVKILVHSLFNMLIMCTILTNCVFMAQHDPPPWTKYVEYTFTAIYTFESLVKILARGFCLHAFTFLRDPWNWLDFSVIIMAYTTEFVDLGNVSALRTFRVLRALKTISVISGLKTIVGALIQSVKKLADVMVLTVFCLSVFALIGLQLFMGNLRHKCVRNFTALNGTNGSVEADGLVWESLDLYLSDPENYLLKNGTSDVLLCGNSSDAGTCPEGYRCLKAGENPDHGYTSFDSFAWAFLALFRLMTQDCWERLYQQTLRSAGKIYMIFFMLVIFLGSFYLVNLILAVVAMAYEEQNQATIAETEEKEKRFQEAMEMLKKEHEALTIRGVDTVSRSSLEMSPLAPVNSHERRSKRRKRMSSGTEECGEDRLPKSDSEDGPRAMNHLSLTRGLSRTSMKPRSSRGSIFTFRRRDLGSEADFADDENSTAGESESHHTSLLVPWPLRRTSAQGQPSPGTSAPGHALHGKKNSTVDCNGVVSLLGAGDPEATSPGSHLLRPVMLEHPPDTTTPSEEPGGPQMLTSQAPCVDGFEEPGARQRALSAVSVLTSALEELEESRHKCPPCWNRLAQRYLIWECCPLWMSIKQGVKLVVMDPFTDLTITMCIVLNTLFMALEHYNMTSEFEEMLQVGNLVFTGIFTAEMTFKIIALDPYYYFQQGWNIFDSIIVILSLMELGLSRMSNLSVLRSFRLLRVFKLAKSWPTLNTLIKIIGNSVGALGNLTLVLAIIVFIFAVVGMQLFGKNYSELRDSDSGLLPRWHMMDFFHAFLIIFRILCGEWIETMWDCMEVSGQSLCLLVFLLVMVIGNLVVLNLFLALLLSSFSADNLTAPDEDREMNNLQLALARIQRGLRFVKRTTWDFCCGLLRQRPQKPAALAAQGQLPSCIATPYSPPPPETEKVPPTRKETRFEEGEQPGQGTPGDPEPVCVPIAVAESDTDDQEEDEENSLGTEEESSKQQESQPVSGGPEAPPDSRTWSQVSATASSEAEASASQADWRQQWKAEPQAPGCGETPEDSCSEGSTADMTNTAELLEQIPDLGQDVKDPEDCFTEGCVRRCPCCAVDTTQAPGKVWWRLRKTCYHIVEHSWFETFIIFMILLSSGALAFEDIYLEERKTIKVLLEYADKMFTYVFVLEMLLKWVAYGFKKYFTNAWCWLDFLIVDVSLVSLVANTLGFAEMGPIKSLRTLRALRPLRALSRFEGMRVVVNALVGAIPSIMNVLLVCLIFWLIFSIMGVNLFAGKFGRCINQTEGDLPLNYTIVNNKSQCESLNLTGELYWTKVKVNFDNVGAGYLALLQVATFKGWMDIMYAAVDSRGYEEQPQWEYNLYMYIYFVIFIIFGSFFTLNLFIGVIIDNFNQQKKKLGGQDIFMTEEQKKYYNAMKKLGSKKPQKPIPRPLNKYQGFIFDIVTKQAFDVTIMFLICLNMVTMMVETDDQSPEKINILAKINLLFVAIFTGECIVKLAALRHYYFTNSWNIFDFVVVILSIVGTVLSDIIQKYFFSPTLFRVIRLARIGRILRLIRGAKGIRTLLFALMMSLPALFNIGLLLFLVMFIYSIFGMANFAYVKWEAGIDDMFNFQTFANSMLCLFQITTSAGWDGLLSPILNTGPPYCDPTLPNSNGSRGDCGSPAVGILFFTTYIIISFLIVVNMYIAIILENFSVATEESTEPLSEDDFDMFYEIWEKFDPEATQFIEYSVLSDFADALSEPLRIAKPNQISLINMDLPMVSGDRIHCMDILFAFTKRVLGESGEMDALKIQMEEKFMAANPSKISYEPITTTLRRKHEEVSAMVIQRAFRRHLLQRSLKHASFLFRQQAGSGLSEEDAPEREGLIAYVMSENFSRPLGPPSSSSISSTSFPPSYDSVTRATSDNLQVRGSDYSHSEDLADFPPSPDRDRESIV
# Sequence of hNav1.3 (Q9NY46 whole entry, looked up): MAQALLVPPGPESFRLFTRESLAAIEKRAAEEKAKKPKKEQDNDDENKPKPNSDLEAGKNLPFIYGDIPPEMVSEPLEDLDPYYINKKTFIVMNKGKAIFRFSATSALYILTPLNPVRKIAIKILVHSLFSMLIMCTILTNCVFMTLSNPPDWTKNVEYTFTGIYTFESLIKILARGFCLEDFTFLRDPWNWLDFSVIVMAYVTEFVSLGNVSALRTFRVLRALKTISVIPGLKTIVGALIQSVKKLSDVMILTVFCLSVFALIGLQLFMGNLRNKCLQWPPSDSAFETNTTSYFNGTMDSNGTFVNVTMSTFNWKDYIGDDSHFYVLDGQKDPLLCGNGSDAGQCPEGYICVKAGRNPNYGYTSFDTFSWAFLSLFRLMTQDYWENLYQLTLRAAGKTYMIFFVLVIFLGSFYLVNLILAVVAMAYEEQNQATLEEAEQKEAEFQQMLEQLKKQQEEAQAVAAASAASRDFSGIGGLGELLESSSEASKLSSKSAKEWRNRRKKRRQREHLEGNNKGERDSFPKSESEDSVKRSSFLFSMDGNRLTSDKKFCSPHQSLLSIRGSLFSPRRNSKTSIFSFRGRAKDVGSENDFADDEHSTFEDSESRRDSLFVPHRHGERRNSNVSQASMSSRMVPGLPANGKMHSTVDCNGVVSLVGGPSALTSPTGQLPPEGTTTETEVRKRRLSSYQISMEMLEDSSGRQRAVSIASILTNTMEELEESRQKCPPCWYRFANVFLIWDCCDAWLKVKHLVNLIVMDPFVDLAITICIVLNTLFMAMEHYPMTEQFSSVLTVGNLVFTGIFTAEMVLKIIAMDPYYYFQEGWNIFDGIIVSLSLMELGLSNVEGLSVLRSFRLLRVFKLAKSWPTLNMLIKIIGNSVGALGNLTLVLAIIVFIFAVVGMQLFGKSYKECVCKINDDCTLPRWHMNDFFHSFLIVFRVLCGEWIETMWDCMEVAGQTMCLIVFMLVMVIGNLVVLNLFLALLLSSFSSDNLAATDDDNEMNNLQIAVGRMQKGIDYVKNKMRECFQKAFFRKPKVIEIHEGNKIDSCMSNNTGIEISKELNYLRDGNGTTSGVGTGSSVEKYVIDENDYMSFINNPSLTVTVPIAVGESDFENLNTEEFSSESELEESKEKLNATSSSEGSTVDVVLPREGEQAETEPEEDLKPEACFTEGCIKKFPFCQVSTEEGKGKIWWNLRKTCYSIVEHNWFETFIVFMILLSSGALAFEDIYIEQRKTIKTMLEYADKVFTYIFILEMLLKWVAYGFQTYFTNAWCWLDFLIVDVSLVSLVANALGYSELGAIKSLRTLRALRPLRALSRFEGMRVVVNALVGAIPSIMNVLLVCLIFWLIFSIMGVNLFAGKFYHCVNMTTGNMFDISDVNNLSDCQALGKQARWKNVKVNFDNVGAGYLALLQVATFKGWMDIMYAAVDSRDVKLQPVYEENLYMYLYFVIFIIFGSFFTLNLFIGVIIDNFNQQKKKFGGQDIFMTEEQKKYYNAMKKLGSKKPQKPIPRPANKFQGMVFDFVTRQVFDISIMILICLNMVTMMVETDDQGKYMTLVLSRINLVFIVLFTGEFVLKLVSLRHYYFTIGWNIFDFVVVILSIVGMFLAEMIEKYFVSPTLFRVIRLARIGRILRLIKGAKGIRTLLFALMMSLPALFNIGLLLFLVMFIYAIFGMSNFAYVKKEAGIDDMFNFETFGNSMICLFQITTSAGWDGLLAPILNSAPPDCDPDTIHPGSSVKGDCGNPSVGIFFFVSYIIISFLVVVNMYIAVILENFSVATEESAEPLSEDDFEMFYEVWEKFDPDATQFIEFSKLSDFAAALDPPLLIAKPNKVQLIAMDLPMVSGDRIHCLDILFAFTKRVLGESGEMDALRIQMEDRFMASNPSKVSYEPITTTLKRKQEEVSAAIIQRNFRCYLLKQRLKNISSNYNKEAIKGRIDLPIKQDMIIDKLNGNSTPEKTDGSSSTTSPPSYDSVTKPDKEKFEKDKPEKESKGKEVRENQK
smiles,measurement,setting,value
"CC[C@H](C)[C@@H]1NC(=O)[C@@H]2CSSC[C@@H]3NC(=O)[C@H](C(C)C)NC(=O)[C@H](CC(C)C)NC(=O)[C@H](CC(N)=O)NC(=O)[C@H](CCCCN)NC(=O)[C@H](CCCNC(=N)N)NC(=O)[C@H](CSSC[C@H](NC(=O)[C@@H](N)CC(=O)O)C(=O)N[C@@H](CC(C)C)C(=O)NCC(=O)N[C@@H](Cc4ccccc4)C(=O)N[C@@H](CCSC)C(=O)N[C@@H](CCCNC(=N)N)C(=O)N[C@@H](CCCCN)C(=O)N2)NC(=O)[C@H](CSSC[C@@H](C(=O)N[C@@H](CCCCN)C(=O)N[C@@H](Cc2ccc(O)cc2)C(=O)N[C@H](C(=O)N[C@@H](Cc2ccccc2)C(N)=O)C(C)C)NC(=O)[C@H](Cc2c[nH]c4ccccc24)NC(=O)[C@H](CCCCN)NC(=O)[C@H](Cc2cnc[nH]2)NC(=O)[C@H]([C@@H](C)O)NC(=O)[C@H](CCCNC(=N)N)NC(=O)[C@H](CO)NC3=O)NC(=O)[C@H](CCCCN)NC(=O)[C@H](CC(=O)O)NC(=O)[C@H](CC(N)=O)NC(=O)[C@H](CC(=O)O)NC(=O)[C@@H]2CCCN2C1=O [compound 50] (H-DCLGFMRKCIPDNDKCCRKNLVCSRTHKWCKYVF-NH2; disulfide 2-17, 9-23, 16-30)",pIC50,hNav1.3; Use,6.74
same,pIC50,hNav1.5; Use,4.97
"CC[C@H](C)[C@@H]1NC(=O)[C@@H]2CSSC[C@@H]3NC(=O)[C@H](C(C)C)NC(=O)[C@H](CC(C)C)NC(=O)[C@H](CC(N)=O)NC(=O)[C@@H]4CCCN4C(=O)[C@H](CCCNC(=N)N)NC(=O)[C@H](CSSC[C@H](NC(=O)[C@@H](N)CC(=O)O)C(=O)N[C@@H](CC(C)C)C(=O)NCC(=O)N[C@@H](Cc4ccccc4)C(=O)N[C@@H](CCSC)C(=O)N[C@@H](CCCNC(=N)N)C(=O)N[C@@H](CCCCN)C(=O)N2)NC(=O)[C@H](CSSC[C@@H](C(=O)N[C@@H](CCCCN)C(=O)N[C@@H](Cc2ccc(O)cc2)C(=O)N[C@H](C(=O)N[C@@H](Cc2ccccc2)C(N)=O)C(C)C)NC(=O)[C@H](Cc2c[nH]c4ccccc24)NC(=O)[C@H](CCCCN)NC(=O)[C@H](Cc2cnc[nH]2)NC(=O)[C@H]([C@@H](C)O)NC(=O)[C@H](CCCCN)NC(=O)[C@H](CO)NC3=O)NC(=O)[C@H](CCCCN)NC(=O)[C@H](CC(=O)O)NC(=O)[C@H](CC(N)=O)NC(=O)[C@H](CC(=O)O)NC(=O)[C@@H]2CCCN2C1=O [compound 53] (H-DCLGFMRKCIPDNDKCCRPNLVCSKTHKWCKYVF-NH2; disulfide 2-17, 9-23, 16-30)",pIC50,hNav1.3; Use,6.62
same,IC50,hNav1.5; IWQ Use Nav1.5 (μM),15.2 µM
"CC[C@H](C)[C@@H]1NC(=O)[C@@H]2CSSC[C@@H]3NC(=O)[C@H](C(C)C)NC(=O)[C@H](CC(C)C)NC(=O)[C@H](CC(N)=O)NC(=O)[C@@H]4CCCN4C(=O)[C@H](CCCNC(=N)N)NC(=O)[C@H](CSSC[C@H](NC(=O)[C@@H](N)CC(=O)O)C(=O)N[C@@H](CC(C)C)C(=O)NCC(=O)N[C@@H](Cc4ccccc4)C(=O)N[C@@H](CCSC)C(=O)N[C@@H](CCCNC(=N)N)C(=O)N[C@@H](CCCCN)C(=O)N2)NC(=O)[C@H](CSSC[C@@H](C(=O)N[C@@H](CCCCN)C(=O)N[C@@H](Cc2ccc(O)cc2)C(=O)N[C@H](C(=O)N[C@@H](Cc2ccccc2)C(N)=O)C(C)C)NC(=O)[C@H](Cc2c[nH]c4ccccc24)NC(=O)[C@H](CCCCN)NC(=O)[C@H](Cc2cnc[nH]2)NC(=O)[C@H]([C@@H](C)O)NC(=O)[C@H](CCCNC(=N)N)NC(=O)[C@H](CO)NC3=O)NC(=O)[C@H](CCCCN)NC(=O)[C@H](CC(=O)O)NC(=O)[C@H](CC(N)=O)NC(=O)[C@H](CCCNC(=N)N)NC(=O)[C@@H]2CCCN2C1=O [compound 67] (H-DCLGFMRKCIPRNDKCCRPNLVCSRTHKWCKYVF-NH2; disulfide 2-17, 9-23, 16-30)",pIC50,hNav1.3; Use,6.85
same,pIC50,hNav1.5; Use,5.30
"CC[C@H](C)[C@@H]1NC(=O)[C@@H]2CSSC[C@@H]3NC(=O)[C@H](C(C)C)NC(=O)[C@H](CC(C)C)NC(=O)[C@H](CCCNC(=N)N)NC(=O)[C@@H]4CCCN4C(=O)[C@H](CCCNC(=N)N)NC(=O)[C@H](CSSC[C@H](NC(=O)[C@@H](N)CC(=O)O)C(=O)N[C@@H](CC(C)C)C(=O)NCC(=O)N[C@@H](Cc4ccccc4)C(=O)N[C@@H](CCSC)C(=O)N[C@@H](CCCNC(=N)N)C(=O)N[C@@H](CCCCN)C(=O)N2)NC(=O)[C@H](CSSC[C@@H](C(=O)N[C@@H](CCCCN)C(=O)N[C@@H](Cc2ccc(O)cc2)C(=O)N[C@H](C(=O)N[C@@H](Cc2ccccc2)C(N)=O)C(C)C)NC(=O)[C@H](Cc2c[nH]c4ccccc24)NC(=O)[C@H](CCCCN)NC(=O)[C@H](Cc2cnc[nH]2)NC(=O)[C@H]([C@@H](C)O)NC(=O)[C@H](CCCNC(=N)N)NC(=O)[C@H](CO)NC3=O)NC(=O)[C@H](CCCCN)NC(=O)[C@H](CC(=O)O)NC(=O)[C@H](CC(N)=O)NC(=O)[C@H](CC(=O)O)NC(=O)[C@@H]2CCCN2C1=O [compound 69] (H-DCLGFMRKCIPDNDKCCRPRLVCSRTHKWCKYVF-NH2; disulfide 2-17, 9-23, 16-30)",pIC50,hNav1.3; Use,7.10
same,pIC50,hNav1.5; Use,4.83
"CC[C@H](C)[C@@H]1NC(=O)[C@@H]2CSSC[C@@H]3NC(=O)[C@H](C(C)C)NC(=O)[C@H](CC(C)C)NC(=O)[C@H](CC(N)=O)NC(=O)[C@@H]4CCCN4C(=O)[C@H](CCCNC(=N)N)NC(=O)[C@H](CSSC[C@H](NC(=O)[C@@H](N)CC(=O)O)C(=O)N[C@@H](CC(C)C)C(=O)NCC(=O)N[C@@H](Cc4ccccc4)C(=O)N[C@@H](CCSC)C(=O)N[C@@H](CCCNC(=N)N)C(=O)N[C@@H](CCCCN)C(=O)N2)NC(=O)[C@H](CSSC[C@@H](C(=O)N[C@@H](CCCCN)C(=O)N[C@@H](Cc2ccc(O)cc2)C(=O)N[C@@H](CCCNC(=N)N)C(=O)N[C@@H](Cc2ccccc2)C(N)=O)NC(=O)[C@H](Cc2c[nH]c4ccccc24)NC(=O)[C@H](CCCCN)NC(=O)[C@H](Cc2cnc[nH]2)NC(=O)[C@H]([C@@H](C)O)NC(=O)[C@H](CCCNC(=N)N)NC(=O)[C@H](CO)NC3=O)NC(=O)[C@H](CCCCN)NC(=O)[C@H](CC(=O)O)NC(=O)[C@H](CC(N)=O)NC(=O)[C@H](CC(=O)O)NC(=O)[C@@H]2CCCN2C1=O [compound 74] (H-DCLGFMRKCIPDNDKCCRPNLVCSRTHKWCKYRF-NH2; disulfide 2-17, 9-23, 16-30)",pIC50,"hNav1.3; Table 26, use, […]",7.30
same,pIC50,"hNav1.5; Table 26, use, […]",5.02
"CC[C@H](C)[C@@H]1NC(=O)[C@@H]2CSSC[C@@H]3NC(=O)[C@H](CCC(=O)O)NC(=O)[C@H](CC(C)C)NC(=O)[C@H](CC(N)=O)NC(=O)[C@@H]4CCCN4C(=O)[C@H](CCCNC(=N)N)NC(=O)[C@H](CSSC[C@H](NC(=O)[C@@H](N)CC(=O)O)C(=O)N[C@@H](CC(C)C)C(=O)NCC(=O)N[C@@H](Cc4ccccc4)C(=O)N[C@@H](CCSC)C(=O)N[C@@H](CCCNC(=N)N)C(=O)N[C@@H](CCCCN)C(=O)N2)NC(=O)[C@H](CSSC[C@@H](C(=O)N[C@@H](CCCCN)C(=O)N[C@@H](Cc2ccc(O)cc2)C(=O)N[C@H](C(=O)N[C@@H](Cc2ccccc2)C(N)=O)C(C)C)NC(=O)[C@H](Cc2c[nH]c4ccccc24)NC(=O)[C@H](CCCCN)NC(=O)[C@H](Cc2cnc[nH]2)NC(=O)[C@H]([C@@H](C)O)NC(=O)[C@H](CCCNC(=N)N)NC(=O)[C@H](CO)NC3=O)NC(=O)[C@H](CCCCN)NC(=O)[C@H](CC(=O)O)NC(=O)[C@H](CC(N)=O)NC(=O)[C@H](CC(=O)O)NC(=O)[C@@H]2CCCN2C1=O [compound 102] (H-DCLGFMRKCIPDNDKCCRPNLECSRTHKWCKYVF-NH2; disulfide 2-17, 9-23, 16-30)",pIC50,hNav1.3; Use,5.67
same,pIC50,hNav1.5; Use,4.68
CC[C@H](C)[C@@H]1NC(=O)[C@@H]2CSSC[C@@H]3NC(=O)[C@H](C(C)C)NC(=O)[C@H](CC(C)C)NC(=O)[C@H](CC(N)=O)NC(=O)[C@@H]4CCCN4C(=O)[C@H](CCCNC(=N)N)NC(=O)[C@H](CSSC[C@H](NC(=O)[C@@H](N)CC(=O)O)C(=O)N[C@@H](CC(C)C)C(=O)NCC(=O)N[C@@H](Cc4ccccc4)C(=O)N[C@@H](CCSC)C(=O)N[C@@H](CCCNC(=N)N)C(=O)N[C@@H](CCCCN)C(=O)N2)NC(=O)[C@H](CSSC[C@@H](C(=O)N[C@@H](CCCCN)C(=O)N[C@@H](Cc2ccc(O)cc2)C(=O)N[C@H](C(=O)N[C@@H](Cc2ccccc2)C(=O)O)C(C)C)NC(=O)[C@H](Cc2c[nH]c4ccccc24)NC(=O)[C@H](CCCCN)NC(=O)[C@H](Cc2cnc[nH]2)NC(=O)[C@H]([C@@H](C)O)NC(=O)[C@H](CCCNC(=N)N)NC(=O)[C@H](CO)NC3=O)NC(=O)[C@H](CCCCN)NC(=O)[C@H](CC(=O)O)NC(=O)[C@H](CC(N)=O)NC(=O)[C@H](CC(=O)O)NC(=O)[C@@H]2CCCN2C1=O [compound 107],pIC50,"hNav1.3; use-dependent, […]",6.27
same,pIC50,"hNav1.5; use-dependent, […]",5.03
"CC[C@H](C)[C@@H]1NC(=O)[C@@H]2CSSC[C@@H]3NC(=O)[C@H](C(C)C)NC(=O)[C@H](CC(C)C)NC(=O)[C@H](CC(N)=O)NC(=O)[C@@H]4CCCN4C(=O)[C@H](CCCNC(=N)N)NC(=O)[C@H](CSSC[C@H](NC(=O)[C@@H](N)CC(=O)O)C(=O)N[C@@H](CC(C)C)C(=O)NCC(=O)N[C@@H](Cc4ccccc4)C(=O)N[C@@H](CCSC)C(=O)N[C@@H](CCCNC(=N)N)C(=O)N[C@@H](CCCCN)C(=O)N2)NC(=O)[C@H](CSSC[C@@H](C(=O)N[C@@H](CCCCN)C(=O)N[C@@H](Cc2ccc(O)cc2)C(=O)N[C@H](C(=O)N[C@@H](Cc2ccccc2)C(N)=O)C(C)C)NC(=O)[C@H](Cc2ccc(O)cc2)NC(=O)[C@H](CCCCN)NC(=O)[C@H](Cc2c[nH]cn2)NC(=O)[C@H]([C@@H](C)O)NC(=O)[C@H](CCCNC(=N)N)NC(=O)[C@H](CO)NC3=O)NC(=O)[C@H](CCCCN)NC(=O)[C@H](CC(=O)O)NC(=O)[C@H](CC(N)=O)NC(=O)[C@H](CC(=O)O)NC(=O)[C@@H]2CCCN2C1=O [compound 113] (H-DCLGFMRKCIPDNDKCCRPNLVCSRTHKYCKYVF-NH2; disulfide 2-17, 9-23, 16-30)",pIC50,"hNav1.3; Table 24, use, […]",5.39
same,pIC50,"hNav1.5; Table 24, use, […]",5.02
